We go through 11 compounds from BindingDB's records for doi:10.1016/j.bioorg.2017.01.017 (University of The Punjab, 2017).

pIC50: −log10 of the molar value.

The target of the assay is Alpha-glucosidase MAL12 (Saccharomyces cerevisiae (strain ATCC 204508 / S288c), UniProt P53341). As to the kind of experiment: α-Glucosidase Inhibition Assay.
Alpha-glucosidase MAL12, sequence (P53341 whole entry): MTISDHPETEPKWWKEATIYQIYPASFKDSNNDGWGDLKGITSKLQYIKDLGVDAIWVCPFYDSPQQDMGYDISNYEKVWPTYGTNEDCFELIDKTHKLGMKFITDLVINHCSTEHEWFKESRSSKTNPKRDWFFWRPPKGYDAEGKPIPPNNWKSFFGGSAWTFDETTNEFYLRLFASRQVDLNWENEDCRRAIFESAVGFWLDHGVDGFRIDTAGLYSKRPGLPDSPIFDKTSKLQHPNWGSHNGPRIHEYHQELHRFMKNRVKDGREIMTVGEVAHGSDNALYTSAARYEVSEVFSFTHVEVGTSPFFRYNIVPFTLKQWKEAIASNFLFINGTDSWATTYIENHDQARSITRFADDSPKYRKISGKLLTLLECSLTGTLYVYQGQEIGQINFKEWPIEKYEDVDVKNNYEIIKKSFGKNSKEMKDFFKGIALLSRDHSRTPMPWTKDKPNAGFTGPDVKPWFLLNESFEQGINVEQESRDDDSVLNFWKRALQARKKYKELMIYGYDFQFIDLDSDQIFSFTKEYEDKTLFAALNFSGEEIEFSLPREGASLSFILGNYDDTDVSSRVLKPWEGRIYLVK
Procedure: Afterwards, 10 μL of 0.5 mM p-nitrophenyl-a-d-glucopyranoside (code No. N1377 fromSigma Inc) was added to instigate the reaction. Later 30 min incubation at 37 °C, yellow coloured p-nitrophenol was formed and the absorbance was again recorded at 400 nm to see the difference. These tests were performed in triplicates and suitable dilutions of samples were made for screening.
In turn, `O=c1oc2ccccc2cc1-c1nn(-c2ccccc2)cc1-c1nc(-c2ccccc2)c(-c2ccccc2)[nH]1` [3-(4-(4,5-diphenyl-1H-imidazol-2-yl)-1-phenyl-1H-pyrazol-3-yl)-2H-chromen-2-one (2j)] showed a negative-log IC50 (pIC50) of 5.56.
In the case of `Brc1ccc(-c2nn(-c3ccccc3)cc2-c2nc(-c3ccccc3)c(-c3ccccc3)[nH]2)cc1` [3-(4-Bromophenyl)-4-(4,5-diphenyl-1H-imidazol-2-yl)-1-phenyl-1H-pyrazole (2c)] it was 4.92.
Regarding `Clc1ccc(-c2nn(-c3ccccc3)cc2-c2nc(-c3ccccc3)c(-c3ccccc3)[nH]2)cc1` [3-(4-Chlorophenyl)-4-(4,5-diphenyl-1H-imidazol-2-yl)-1-phenyl-1H-pyrazole (2b)], the negative-log IC50 (pIC50) is 4.88.
In the case of `c1ccc(-c2ccc(-c3nn(-c4ccccc4)cc3-c3nc(-c4ccccc4)c(-c4ccccc4)[nH]3)cc2)cc1` [3-([1,1'-Biphenyl]-4-yl)-4-(4,5-diphenyl-1H-imidazol-2-yl)-1-phenyl-1H-pyrazole (2g)] it was 4.76; in that of `c1ccc(-c2nn(-c3ccccc3)cc2-c2nc(-c3ccccc3)c(-c3ccccc3)[nH]2)cc1` [4-(4,5-Diphenyl-1H-imidazol-2-yl)-1,3-diphenyl-1H-pyrazole (2a)], 4.65.
Take `O=[N+]([O-])c1ccc(-n2cc(-c3nc(-c4ccccc4)c(-c4ccccc4)[nH]3)c(-c3ccccc3)n2)cc1` [4-(4,5-Diphenyl-1H-imidazol-2-yl)-1-(4-nitrophenyl)-3-phenyl-1H-pyrazole (2h)]: the pIC50 is 5.11.
With `Cc1nn(-c2ccc([N+](=O)[O-])cc2)c(C)c1-c1nc(-c2ccccc2)c(-c2ccccc2)[nH]1` [4-(4,5-Diphenyl-1H-imidazol-2-yl)-3,5-dimethyl-1-(4-nitrophenyl)-1H-pyrazole (2i)], the pIC50 was 4.66. This pIC50 lies 0.45 log units lower than the previous one.
As for `O=[N+]([O-])c1cccc(-c2nn(-c3ccccc3)cc2-c2nc(-c3ccccc3)c(-c3ccccc3)[nH]2)c1` [4-(4,5-Diphenyl-1H-imidazol-2-yl)-3-(3-nitrophenyl)-1-phenyl-1H-pyrazole (2f)], the pIC50 was 4.89.
Compound `COc1ccc(-c2nn(-c3ccccc3)cc2-c2nc(-c3ccccc3)c(-c3ccccc3)[nH]2)cc1` [4-(4,5-Diphenyl-1H-imidazol-2-yl)-3-(4-methoxyphenyl)-1-phenyl-1H-pyrazole (2e)] had a pIC50 of 4.62. This pIC50 lies 0.27 log units lower than the previous one.
The figure for `O=[N+]([O-])c1ccc(-c2nn(-c3ccccc3)cc2-c2nc(-c3ccccc3)c(-c3ccccc3)[nH]2)cc1` [4-(4,5-Diphenyl-1H-imidazol-2-yl)-3-(4-nitrophenyl)-1-phenyl-1H-pyrazole (2d)] is 4.68; for `O=c1oc2ccc(Br)cc2cc1-c1nn(-c2ccccc2)cc1-c1nc(-c2ccccc2)c(-c2ccccc2)[nH]1` [6-Bromo-3-(4-(4,5-diphenyl-1H-imidazol-2-yl)-1-phenyl-1Hpyrazol-3-yl)-2H-chromen 2-one (2k)] it is 5.53.

For orientation: pIC50 means −log10 of the IC50, conventionally taken in molar units. Read a high pIC50 as a small IC50.
